Consider 6 compounds from ChEMBL document CHEMBL3132769, “Fragment growing to retain or alter the selectivity of anchored kinase hinge-binding fragments” (Medchemcomm, 2014).

The structures appear in SMILES notation.

In general, inhibition refers to how much of the control response was suppressed.

Test [1] addresses Tyrosine-protein kinase HCK (Homo sapiens) (UniProt P08631). The test can be described thus: Inhibition of human HCK catalytic domain expressed in baculovirus assessed as substrate phosphorylation using fluorescence-labelled peptides as substrate at 2 uM after 90 mins by microfluidic peptide phosphorylation assay.
For test [2], the target named is T1, MAP kinase-activated protein kinase 5 (Homo sapiens) (UniProt Q8IW41).
T1 sequence (whole entry): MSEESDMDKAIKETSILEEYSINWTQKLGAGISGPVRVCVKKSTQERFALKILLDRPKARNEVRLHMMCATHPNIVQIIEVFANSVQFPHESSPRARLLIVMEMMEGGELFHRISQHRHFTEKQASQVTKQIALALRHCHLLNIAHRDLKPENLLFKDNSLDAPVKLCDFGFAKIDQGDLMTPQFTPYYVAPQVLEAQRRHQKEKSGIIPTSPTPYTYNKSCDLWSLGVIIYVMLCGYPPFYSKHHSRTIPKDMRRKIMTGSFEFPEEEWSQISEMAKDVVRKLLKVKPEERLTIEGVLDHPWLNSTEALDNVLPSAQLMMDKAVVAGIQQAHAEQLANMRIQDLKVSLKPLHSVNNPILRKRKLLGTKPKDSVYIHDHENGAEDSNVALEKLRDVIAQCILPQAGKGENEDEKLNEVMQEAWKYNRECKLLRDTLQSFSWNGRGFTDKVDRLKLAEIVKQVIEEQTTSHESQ
Put plainly: Inhibition of human full length PRAK expressed in baculovirus assessed as substrate phosphorylation using fluorescence-labelled peptides as substrate at 2 uM after 90 mins by microfluidic peptide phosphorylation assay.

For test [3], the target named is Cyclin-dependent kinase 2 (Homo sapiens) (UniProt P24941). Put plainly: Inhibition of human full length CDK2 expressed in baculovirus assessed as substrate phosphorylation using fluorescence-labelled peptides as substrate at 0.1 uM after 90 mins by microfluidic peptide phosphorylation assay.
In test [4] the target is T2, Protein kinase C zeta type (Homo sapiens) (UniProt Q05513).
T2 sequence (whole entry): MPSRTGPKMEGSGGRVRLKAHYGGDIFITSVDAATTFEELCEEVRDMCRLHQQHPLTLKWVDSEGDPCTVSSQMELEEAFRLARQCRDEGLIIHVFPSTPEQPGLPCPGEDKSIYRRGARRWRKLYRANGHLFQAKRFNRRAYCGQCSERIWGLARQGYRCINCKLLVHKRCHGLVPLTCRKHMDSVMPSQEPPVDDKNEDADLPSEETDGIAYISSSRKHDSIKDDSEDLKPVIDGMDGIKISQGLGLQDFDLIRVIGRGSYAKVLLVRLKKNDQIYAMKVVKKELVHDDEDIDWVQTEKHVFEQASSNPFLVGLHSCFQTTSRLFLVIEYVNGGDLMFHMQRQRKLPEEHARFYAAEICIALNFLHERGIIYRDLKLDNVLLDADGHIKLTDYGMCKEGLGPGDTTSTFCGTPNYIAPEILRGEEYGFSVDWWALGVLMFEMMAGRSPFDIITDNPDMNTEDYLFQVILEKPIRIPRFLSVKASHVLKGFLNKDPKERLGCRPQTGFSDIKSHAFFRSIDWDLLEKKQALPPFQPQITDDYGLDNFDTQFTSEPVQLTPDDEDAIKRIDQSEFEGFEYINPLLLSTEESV
The test can be described thus: Inhibition of human full length PKC zeta expressed in baculovirus assessed as substrate phosphorylation using fluorescence-labelled peptides as substrate at 0.1 uM after 90 mins by microfluidic peptide phosphorylation assay.

The target of test [5] is Tyrosine-protein kinase BTK (Homo sapiens) (UniProt Q06187). The test can be described thus: Inhibition of human full length BTK expressed in baculovirus assessed as substrate phosphorylation using fluorescence-labelled peptides as substrate at 0.2 uM after 90 mins by microfluidic peptide phosphorylation assay.
Chain of Tyrosine-protein kinase BTK (Homo sapiens) (Q06187 whole entry): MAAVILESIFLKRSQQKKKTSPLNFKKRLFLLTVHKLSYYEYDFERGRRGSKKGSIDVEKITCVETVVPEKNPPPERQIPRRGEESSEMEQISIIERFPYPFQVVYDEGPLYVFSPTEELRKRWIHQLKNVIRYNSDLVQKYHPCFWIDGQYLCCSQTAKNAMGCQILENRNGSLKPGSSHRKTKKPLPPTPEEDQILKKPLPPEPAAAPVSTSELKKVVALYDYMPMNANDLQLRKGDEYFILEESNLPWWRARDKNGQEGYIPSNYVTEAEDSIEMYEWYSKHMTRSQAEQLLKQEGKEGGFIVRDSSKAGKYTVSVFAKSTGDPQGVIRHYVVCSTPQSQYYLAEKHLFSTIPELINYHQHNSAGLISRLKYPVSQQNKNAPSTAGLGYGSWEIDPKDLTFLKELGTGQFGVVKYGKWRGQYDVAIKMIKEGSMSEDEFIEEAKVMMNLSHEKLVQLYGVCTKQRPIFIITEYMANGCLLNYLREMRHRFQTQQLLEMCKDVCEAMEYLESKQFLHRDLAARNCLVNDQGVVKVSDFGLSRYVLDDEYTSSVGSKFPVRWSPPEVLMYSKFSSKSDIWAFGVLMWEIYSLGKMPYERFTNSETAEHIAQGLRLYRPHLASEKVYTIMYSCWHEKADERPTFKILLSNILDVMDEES
The target of test [6] is Ribosomal protein S6 kinase alpha-3 (Homo sapiens) (UniProt P51812). Put plainly: Inhibition of human full length RSK2 expressed in baculovirus assessed as substrate phosphorylation using fluorescence-labelled peptides as substrate at 0.06 uM after 90 mins by microfluidic peptide phosphorylation assay.
Chain of Ribosomal protein S6 kinase alpha-3 (Homo sapiens) (P51812 whole entry): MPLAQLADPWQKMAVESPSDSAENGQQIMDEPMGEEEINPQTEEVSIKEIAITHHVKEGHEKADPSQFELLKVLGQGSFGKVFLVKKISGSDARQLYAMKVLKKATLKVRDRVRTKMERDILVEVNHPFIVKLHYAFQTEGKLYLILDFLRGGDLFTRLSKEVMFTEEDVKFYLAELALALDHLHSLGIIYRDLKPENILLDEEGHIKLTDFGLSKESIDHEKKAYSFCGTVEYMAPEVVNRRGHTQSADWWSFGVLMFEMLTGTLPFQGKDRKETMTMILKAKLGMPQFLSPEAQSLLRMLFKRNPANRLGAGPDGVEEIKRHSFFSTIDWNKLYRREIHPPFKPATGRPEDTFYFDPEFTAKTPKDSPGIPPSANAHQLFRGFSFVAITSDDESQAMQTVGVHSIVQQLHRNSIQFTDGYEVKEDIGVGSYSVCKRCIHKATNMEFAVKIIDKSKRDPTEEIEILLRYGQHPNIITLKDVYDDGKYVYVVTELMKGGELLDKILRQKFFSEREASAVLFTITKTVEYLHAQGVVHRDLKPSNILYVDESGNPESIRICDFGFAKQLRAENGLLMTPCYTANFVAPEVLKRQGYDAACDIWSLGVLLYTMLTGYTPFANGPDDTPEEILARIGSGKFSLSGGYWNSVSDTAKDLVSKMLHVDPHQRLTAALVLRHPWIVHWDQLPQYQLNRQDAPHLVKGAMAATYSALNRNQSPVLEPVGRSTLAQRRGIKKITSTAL
The target of test [7] is Protein kinase C beta type (Homo sapiens) (UniProt P05771). The test can be described thus: Inhibition of human full length PKC beta2 expressed in baculovirus assessed as substrate phosphorylation using fluorescence-labelled peptides as substrate at 0.06 uM after 90 mins by microfluidic peptide phosphorylation assay.
Chain of Protein kinase C beta type (Homo sapiens) (P05771 2-671 limits assumed): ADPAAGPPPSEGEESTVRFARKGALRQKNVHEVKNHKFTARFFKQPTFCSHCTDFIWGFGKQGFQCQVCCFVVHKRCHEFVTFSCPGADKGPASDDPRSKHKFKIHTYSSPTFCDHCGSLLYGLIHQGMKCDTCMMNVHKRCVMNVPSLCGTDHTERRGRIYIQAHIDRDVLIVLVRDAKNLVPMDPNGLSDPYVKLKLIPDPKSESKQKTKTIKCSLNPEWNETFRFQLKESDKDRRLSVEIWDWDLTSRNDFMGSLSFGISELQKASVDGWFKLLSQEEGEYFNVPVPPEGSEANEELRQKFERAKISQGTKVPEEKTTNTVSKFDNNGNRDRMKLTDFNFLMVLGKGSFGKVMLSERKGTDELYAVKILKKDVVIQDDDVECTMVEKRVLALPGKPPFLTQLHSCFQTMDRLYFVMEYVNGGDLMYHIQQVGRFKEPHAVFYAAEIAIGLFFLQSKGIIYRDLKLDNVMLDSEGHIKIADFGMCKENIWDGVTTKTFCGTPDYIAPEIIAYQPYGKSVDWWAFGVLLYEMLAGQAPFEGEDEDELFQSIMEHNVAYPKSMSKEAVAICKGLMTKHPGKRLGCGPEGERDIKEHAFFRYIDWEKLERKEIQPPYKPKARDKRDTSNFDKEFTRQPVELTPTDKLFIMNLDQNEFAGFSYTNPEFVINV
Test [8] has as its target Protein kinase C alpha type (Homo sapiens) (UniProt P17252). Put plainly: Inhibition of human truncated PKC alpha expressed in baculovirus assessed as substrate phosphorylation using fluorescence-labelled peptides as substrate at 0.06 uM after 90 mins by microfluidic peptide phosphorylation assay.
Test [9] concerns the target Protein kinase C gamma type (Homo sapiens) (UniProt P05129). The test can be described thus: Inhibition of human truncated PKC gamma expressed in baculovirus assessed as substrate phosphorylation using fluorescence-labelled peptides as substrate at 9 uM after 90 mins by microfluidic peptide phosphorylation assay.
The target in test [10] is T1, MAP kinase-activated protein kinase 5 (Homo sapiens). Put plainly: Inhibition of human full length PRAK expressed in baculovirus assessed as substrate phosphorylation using fluorescence-labelled peptides as substrate at 9 uM after 90 mins by microfluidic peptide phosphorylation assay.
In test [11] the target is T3, Serine/threonine-protein kinase Chk1 (Homo sapiens) (UniProt O14757).
T3 sequence (whole entry): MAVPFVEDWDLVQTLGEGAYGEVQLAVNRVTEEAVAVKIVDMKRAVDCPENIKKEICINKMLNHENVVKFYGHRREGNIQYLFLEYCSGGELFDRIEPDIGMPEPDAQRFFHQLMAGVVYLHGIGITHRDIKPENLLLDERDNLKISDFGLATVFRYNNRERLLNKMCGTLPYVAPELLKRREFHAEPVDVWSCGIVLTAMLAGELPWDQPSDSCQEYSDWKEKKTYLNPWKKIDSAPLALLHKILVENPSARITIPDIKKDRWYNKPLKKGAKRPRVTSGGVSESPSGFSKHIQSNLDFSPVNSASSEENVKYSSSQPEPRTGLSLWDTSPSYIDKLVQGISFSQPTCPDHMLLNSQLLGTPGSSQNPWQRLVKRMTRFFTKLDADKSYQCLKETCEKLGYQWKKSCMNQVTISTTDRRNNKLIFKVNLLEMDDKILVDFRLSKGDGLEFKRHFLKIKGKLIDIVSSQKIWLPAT
The note with it: 9 uM.
Description: Inhibition of human full length CHK1 expressed in baculovirus assessed as substrate phosphorylation using fluorescence-labelled peptides as substrate at 9 uM after 90 mins by microfluidic peptide phosphorylation assay

For the next test, the species on record is Homo sapiens. Put plainly: Inhibition of human full length PKA expressed in baculovirus assessed as substrate phosphorylation using fluorescence-labelled peptides as substrate at 420 uM after 90 mins by microfluidic peptide phosphorylation assay.
Test [12] has as its target Ribosomal protein S6 kinase alpha-2 (Homo sapiens) (UniProt Q15349). The test can be described thus: Inhibition of human full length RSK3 expressed in baculovirus assessed as substrate phosphorylation using fluorescence-labelled peptides as substrate at 420 uM after 90 mins by microfluidic peptide phosphorylation assay.

Chain of Tyrosine-protein kinase HCK (Homo sapiens) (P08631 2-526 limits assumed): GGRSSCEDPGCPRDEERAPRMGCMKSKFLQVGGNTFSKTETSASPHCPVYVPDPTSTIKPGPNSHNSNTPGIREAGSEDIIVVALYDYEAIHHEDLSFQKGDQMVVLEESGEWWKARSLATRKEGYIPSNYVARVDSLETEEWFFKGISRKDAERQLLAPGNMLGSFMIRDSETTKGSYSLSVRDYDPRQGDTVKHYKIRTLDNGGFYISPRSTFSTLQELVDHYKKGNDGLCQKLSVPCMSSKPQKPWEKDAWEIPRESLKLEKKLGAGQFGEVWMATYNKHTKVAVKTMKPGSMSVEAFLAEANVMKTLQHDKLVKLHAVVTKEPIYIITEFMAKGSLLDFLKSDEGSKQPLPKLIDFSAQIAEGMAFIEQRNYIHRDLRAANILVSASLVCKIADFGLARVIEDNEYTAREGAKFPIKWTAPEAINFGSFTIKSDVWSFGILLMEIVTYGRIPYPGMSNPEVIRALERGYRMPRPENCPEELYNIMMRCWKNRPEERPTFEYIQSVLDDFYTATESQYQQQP
Chain of Ribosomal protein S6 kinase alpha-2 (Homo sapiens) (Q15349 whole entry): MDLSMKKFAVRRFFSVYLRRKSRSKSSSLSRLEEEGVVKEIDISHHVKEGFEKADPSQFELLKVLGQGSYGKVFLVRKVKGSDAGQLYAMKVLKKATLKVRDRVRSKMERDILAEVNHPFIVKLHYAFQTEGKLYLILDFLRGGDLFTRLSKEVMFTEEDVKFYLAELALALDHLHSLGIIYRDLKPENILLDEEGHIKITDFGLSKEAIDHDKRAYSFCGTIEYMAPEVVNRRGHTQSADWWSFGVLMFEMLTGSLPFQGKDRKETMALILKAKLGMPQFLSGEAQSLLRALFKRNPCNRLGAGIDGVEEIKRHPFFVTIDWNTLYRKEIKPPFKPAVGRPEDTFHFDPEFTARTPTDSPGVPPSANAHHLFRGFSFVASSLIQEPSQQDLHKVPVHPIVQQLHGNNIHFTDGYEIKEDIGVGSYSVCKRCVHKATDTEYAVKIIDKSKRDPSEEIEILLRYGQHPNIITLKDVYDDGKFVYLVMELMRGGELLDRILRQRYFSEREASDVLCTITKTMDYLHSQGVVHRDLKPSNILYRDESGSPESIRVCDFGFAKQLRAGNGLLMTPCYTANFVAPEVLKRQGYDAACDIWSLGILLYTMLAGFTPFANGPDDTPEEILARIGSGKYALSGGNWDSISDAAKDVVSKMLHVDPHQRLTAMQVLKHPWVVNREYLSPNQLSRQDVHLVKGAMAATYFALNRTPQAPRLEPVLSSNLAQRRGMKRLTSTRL

As to `NC1CCN(c2ncnc3[nH]ccc23)CC1`, the inhibition in test [1] is 3%; in [2], 7%.
In the case of `C[C@H](CN(C)C)Oc1nc(Nc2cc3cccc(Cl)c3cn2)cnc1C#N`, the values for the inhibition in [3] and in test [4] were 1.5% and 19%, respectively.
As for `Clc1ccc(C2(c3ccc(-c4ncnc5[nH]cnc45)cc3)CCNCC2)cc1`, in [5], the inhibition was 0%.
Take `NC1(Cc2ccc(Cl)cc2)CCN(c2ncnc3[nH]ccc23)CC1`: the inhibition in test [6] turned out to be 0.5%; in [7], 0%; in [8], 30%.
In the case of `NCC1CN(c2ncnc3[nH]c4cnccc4c23)CCO1` (stereo not drawn), the figures for the inhibition in test [9], in [10] and in test [11] were 34.5%, 0% and 91%, respectively.
With `c1nc(N2CCOCC2)c2nc[nH]c2n1`, the inhibition in the test filed under Homo sapiens was determined as 92.5%; in test [12], 98%.
